Experimental data reported in BindingDB's records for doi:10.1124/jpet.104.081562 (Mayo Clinic, 2005).

biological target: T1, Promotilin (Homo sapiens, UniProt P12872)
T1 sequence (P12872 whole entry): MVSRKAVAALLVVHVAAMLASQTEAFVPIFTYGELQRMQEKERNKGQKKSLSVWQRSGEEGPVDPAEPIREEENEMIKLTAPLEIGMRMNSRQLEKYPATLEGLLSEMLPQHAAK

Row | Ki | Compound
1 | 0.0023 µM | CC[C@H](C)[C@H](NC(=O)[C@@H]1CCCN1C(=O)[C@@H](NC(=O)[C@@H](N)Cc1ccccc1)C(C)C)C(=O)N[C@@H](Cc1ccccc1)C(=O)N[C@H](C(=O)N[C@@H](Cc1ccc(O)cc1)C(=O)NCC(=O)N[C@@H](CCC(=O)O)C(=O)N[C@@H](CC(C)C)C(=O)N[C@@H](CCC(N)=O)C(=O)N[C@@H](CCCNC(=N)N)C(=O)N[C@@H](CCSC)C(=O)N[C@@H](CCC(N)=O)C(=O)N[C@@H](CCC(=O)O)C(=O)N[C@@H](CCCCN)C(=O)N[C@@H](CCC(=O)O)C(=O)N[C@@H](CCCNC(=N)N)C(=O)N[C@@H](CC(N)=O)C(=O)N[C@@H](CCCCN)C(=O)NCC(=O)N[C@@H](CCC(N)=O)C(=O)O)[C@@H](C)O [CAS_52906-92-0]
2 | 0.42 µM | CC[C@H](C)[C@H](NC(=O)[C@H](CCCN=C(N)N)NC(=O)[C@H](CCC(N)=O)NC(=O)[C@H](CC(C)C)NC(=O)[C@H](CCC(=O)O)NC(=O)CNC(=O)[C@H](Cc1ccc(O)cc1)NC(=O)[C@@H](NC(=O)[C@@H](Cc1ccc(C(=O)c2ccccc2)cc1)NC(=O)[C@@H](NC(=O)[C@@H]1CCCN1C(=O)[C@@H](NC(=O)[C@@H](N)Cc1ccccc1)C(C)C)[C@@H](C)CC)[C@@H](C)O)C(=O)N[C@@H](CCC(N)=O)C(=O)N[C@@H](CCC(=O)O)C(=O)N[C@@H](CCCCN)C(=O)N[C@@H](CCC(=O)O)C(=O)N[C@@H](CCCN=C(N)N)C(=O)N[C@@H](CC(N)=O)C(=O)N[C@@H](CCCCN)C(=O)NCC(=O)N[C@@H](CCC(N)=O)C(=O)O [[D-Bpa5,Ile13]Motilin]
3 | 0.05 µM | CC[C@H](C)[C@H](NC(=O)[C@H](CCCN=C(N)N)NC(=O)[C@H](CCC(N)=O)NC(=O)[C@H](CC(C)C)NC(=O)[C@H](CCC(=O)O)NC(=O)CNC(=O)[C@H](Cc1ccc(O)cc1)NC(=O)[C@@H](NC(=O)[C@H](Cc1ccc(C(=O)c2ccccc2)cc1)NC(=O)[C@@H](NC(=O)[C@@H]1CCCN1C(=O)[C@@H](NC(=O)[C@@H](N)Cc1ccccc1)C(C)C)[C@@H](C)CC)[C@@H](C)O)C(=O)N[C@@H](CCC(N)=O)C(=O)N[C@@H](CCC(=O)O)C(=O)N[C@@H](CCCCN)C(=O)N[C@@H](CCC(=O)O)C(=O)N[C@@H](CCCN=C(N)N)C(=O)N[C@@H](CC(N)=O)C(=O)N[C@@H](CCCCN)C(=O)NCC(=O)N[C@@H](CCC(N)=O)C(=O)O [[L-Bpa5,Ile13]Motilin]
